How the values were obtained:
[1] = test system: S. aureus and S. epidermidis isolates; test: Semi-quantitative biofilm assay (crystal violet, OD570) after culturing for 24 h; type: cell-based; conditions: 24 h culture, OD570, FIG. 12B, p≤0.005
Description: 3 ml Trypticase Soy Broth was inoculated with a colony from an overnight plate. Pre-cultures were grown at 37° C. with shaking to mid-exponential phase (2-3 h), and then used to inoculate fresh TSB to a starting OD600 of 0.01. 200 μl aliquots of this suspension were then inoculated into wells of one full row of the test plate. The plate was then incubated in a FLUOstar OPTIMA microplate reader at 37° C., and the optical density of each well measured every hour over a 24 h period. After 24 h the suspension in each plate was removed. The plate itself was washed three times with phosphate buffered saline, pH 7.4 (PBS), air dried and stained with 150 μl crystal violet solution. The dye bound to any attached cells was solubilized by addition of 150 μl of 95% ethanol. Optical density was measured as absorbance at 570 nm using a FLUOstar OPTIMA microplate reader and biofilm positive defined as OD570 above 1. All S. aureus and S. epidermidis isolates were tested in triplicate in three independent experiments. Each plate also consisted of negative controls (wells without bacterial inoculation). Data was analyzed using unpaired t-tests or one-way ANOVA, and the level of significance set at p<0.05. The ability of the bacteria to form a biofilm in the presence of the ATX samples was determined after culturing for 24 h using a semi-quantitative biofilm assay.

S. epidermidis 1457 = test: Bacterial growth on coated 96 well plates, optical density over 24 h; type: cell-based; conditions: coated wells, 37° C., FIG. 12A
Description: The potential antibacterial properties of polymer based ATX samples were tested against Staphylococcus aureus MRSA252, S. aureus MSSA476 and S. epidermidis 1457. Using solvent casting method [J. Ghosh et al., Polymer, vol. 52, pp. […]], 96 well plates were coated with the following samples—ATX only, ATX+sebacic acid (SA), ATX+Hexadecanoic acid (HA) and ATX+sebacic acid+2% polyethylene glycol (PEG). Each sample coated 3 wells per row and the last row was left blank as a control.
3 ml Trypticase Soy Broth was inoculated with a colony from an overnight plate. Pre-cultures were grown at 37° C. with shaking to mid-exponential phase (2-3 h), and then used to inoculate fresh TSB to a starting OD600 of 0.01. 200 μl aliquots of this suspension were then inoculated into wells of one full row of the test plate. The plate was then incubated in a FLUOstar OPTIMA microplate reader at 37° C., and the optical density of each well measured every hour over a 24 h period. […]
Optical density was measured as absorbance at 570 nm using a FLUOstar OPTIMA microplate reader and biofilm positive defined as OD570 above 1. […] Data was analyzed using unpaired t-tests or one-way ANOVA, and the level of significance set at p<0.05. The ability of the bacteria to form a biofilm in the presence of the ATX samples was determined after culturing for 24 h using a semi-quantitative biofilm assay.

**Q.** What does the source list for `CC1=C(/C=C/C(C)=C/C=C/C(C)=C/C=C/C=C(C)/C=C/C=C(C)/C=C/C2=C(C)C(=O)[C@@H](O)CC2(C)C)C(C)(C)C[C@H](O)C1=O` [ATX, 3,3′-dihydroxy-β,βcarotene-4,4′-dione]?
**A.** biofilm formation on coated surface vs control [1]: inhibited the bacteria from forming biofilm; effect on growth of the bacteria (optical density) (S. epidermidis 1457): significant effect on inhibiting the growth
